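Method: 48-hour compound exposure of cells in 96-well plates, five concentrations, linear interpolation of endpoints. TGI: concentration producing complete growth inhibition.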
What was measured:
Assay in all cases: inhibition of tumour cell growth, NCI panel, 48 h
[1] = tested on: SK-OV-3 ovarian
[2] = tested on: NCI-H23 lung
[3] = tested on: HCC-2998 colon
[4] = tested on: SK-MEL-28 melanoma
[5] = tested on: UACC-62 melanoma
[6] = tested on: RXF 393 renal
[7] = tested on: SNB-19 CNS
[8] = tested on: SF-539 CNS
[9] = tested on: ACHN renal
[10] = tested on: A498 renal
[11] = tested on: CAKI-1 renal
[12] = tested on: SR leukemia
[13] = tested on: OVCAR-4 ovarian
[14] = tested on: MDA-N
[15] = tested on: HL-60(TB) leukemia
[16] = tested on: UACC-257 melanoma
[17] = tested on: CCRF-CEM leukemia
[18] = tested on: MDA-MB-231 breast
[19] = tested on: EKVX NSCLC
[20] = tested on: SN12C renal
[21] = tested on: DU-145 prostate
[22] = tested on: OVCAR-5 ovarian
[23] = tested on: RPMI-8226 leukemia
[24] = tested on: TK-10 renal
[25] = tested on: MCF7 breast
[26] = tested on: NCI/ADR-RES ovarian
[27] = tested on: HCT-116 colon
[28] = tested on: MDA-MB-435
[29] = tested on: SK-MEL-2 melanoma
[30] = tested on: SNB-75 CNS
[31] = tested on: HOP-62 NSCLC
[32] = tested on: COLO 205 colon
[33] = tested on: SW-620 colon
[34] = tested on: HOP-92 NSCLC
[35] = tested on: BT-549 breast
[36] = tested on: OVCAR-3 ovarian
[37] = tested on: OVCAR-8 ovarian
[38] = tested on: SF-268 CNS
[39] = tested on: SF-295 CNS
[40] = tested on: MOLT-4 leukemia
[41] = tested on: 786-0 renal
[42] = tested on: MALME-3M melanoma
[43] = tested on: NCI-H522 lung
[44] = tested on: A549 NSCLC
[45] = tested on: T-47D breast
[46] = tested on: PC-3 prostate
[47] = tested on: U251 CNS
[48] = tested on: HCT-15 colon
[49] = tested on: UO-31 renal
[50] = tested on: LOX IMVI melanoma
[51] = tested on: HT29 colon
[52] = tested on: SK-MEL-5 melanoma
[53] = tested on: K-562 leukemia
[54] = tested on: NCI-H460 lung
[55] = tested on: HS 578T breast
[56] = tested on: NCI-H226 lung
[57] = tested on: IGROV1 ovarian
[58] = tested on: KM12 colon
[59] = tested on: M14 melanoma

Measured: TGI

COC(=O)Cc1c([C@H]2[C@H](CC(=O)OC)c3ccccc3N2C(=O)C(F)(F)F)[nH]c2ccccc12
73.4 µM: [18]
58.3 µM: [29]
84.6 µM: [30]
36.1 µM: [32]
82.3 µM: [12]
97.2 µM: [35]
38.4 µM: [40]
98.4 µM: [6]
55 µM: [54]
30.3 µM: [5]
90.6 µM: [42]
47.8 µM: [47]
38 µM: [36]
56.2 µM: [17] | [43]
91.3 µM: [26]
62 µM: [28]
92.1 µM: [55]
24.8 µM: [52]
80.7 µM: [39]
not listed: [58] | [59]
> 100 µM: all other assays above

CC(=O)c1c(C)cn(S(=O)(=O)NC(=O)Nc2nncs2)c1C
78.1 µM: [17]
not listed: [8]
> 100 µM: all other assays above

Cc1cc(CN2CCCCC2)c(O)c(CN2CCCCC2)c1
not listed: [8] | [40]
> 100 µM: all other assays above

Reference: PubChem BioAssay (NCI)
